According to US20100099762A1, “COMBINATION THERAPY” (THE MENTAL HEALTH RESEARCH INSTITUTE OF VICTORIA, priority 2006, published 2010):

How the values were obtained:
[1] = system: bipolar disorder; experiment: Double blind randomised placebo controlled trial of NAC in addition to treatment as usual in bipolar disorder; type: in vivo, human
Text: Consented individuals were assigned using simple randomization (Beller et al., 2002) to treatment with NAC or placebo in addition to treatment as usual, in a double-blind fashion. The nature and dose of the primary therapy was monitored. The person generating the randomisation schedule was not involved in any aspect of participant interview. The investigators, clinicians and statisticians were blind to treatment allocation until the data analysis was completed. The study was registered with the Australian Clinical Trials Registry (Protocol #12605000362695). Participants were recruited through advertisements, their private psychiatrists and database screening. All participants provided written informed consent. The trial setting was in the public and private outpatient psychiatry clinics of the participating centers. The trial was approved by each participating research and ethics committee (Barwon Health, Southwest Area Mental Health Service, Bendigo Health, all in Victoria, Australia), and was conducted according to Good Clinical Practice guidelines.
All randomized participants received two NAC (500 mg) capsules twice daily (2 g daily), or matching placebo. We selected a daily dose that was at the upper dosing range for published clinical trials of oral NAC of 12 weeks to 12 months duration, and that reported evidence of tolerability and some efficacy (Adair et al., 2001; Van Schooten et al., 2002; Behr et al., 2002; Demedts et al., 2005).
Individuals needed to meet DSM-IV criteria for bipolar disorder (I or II) with at least 1 documented episode of illness (depressive, manic or mixed) in the previous 6 months, and had to have been on stable therapy for at least 1 month prior to randomisation. Participants were required to have the capacity to consent to the study and comply with study procedures, and utilise effective contraception where indicated.
Exclusion criteria included individuals with a known or suspected clinically relevant systemic medical disorder, including asthma, bronchospasm, or respiratory insufficiency, recent gastrointestinal ulcers, and individuals who were pregnant or lactating. Individuals taking greater than 500 mg of NAC/day, 200 μg of selenium/day or 500 IU of Vitamin E/day were excluded, as were those with a history of anaphylaxis with NAC or any component of the preparation. Inability to comply with either the requirements of informed consent or the treatment protocol was also an exclusion criterion.
Withdrawal from the study occurred if participants ceased taking their trial medication for 7 consecutive days, stopped effective contraception or became pregnant. Dose changes to existing medications, or the addition or removal of an agent were accepted, and participants were allowed to continue with the study. Participants were withdrawn from the study if they revoked their consent or developed serious adverse events associated with the study drug, which could occur either at the request of the patient or the discretion of the investigator.
Participants were assessed at baseline using a structured clinical interview (MINI-plus) and underwent a physical examination. Clinical status was assessed using the MADRS, BDRS, YMRS, CGI-Improvement and Severity scales for bipolar disorder (CGI-I-BP, CGI-S-BP), GAF, SOFAS, SLICE/LIFE, LIFE RIFT, and Q-LES-Q.
These scales were repeated 2 weekly for the first 4 weeks and 4-weekly thereafter for a total of 24 weeks, or on the day of study termination if the patient withdrew prior to the final scheduled visit. A follow-up visit was conducted 4 weeks (±2 weeks) after the trial completion, either at trial endpoint (week 24), or premature discontinuation, to determine any change in clinical status on treatment discontinuation.
Time to any intervention for mood symptoms was a further outcome measure. […]

[2] = system: total glutathione levels; experiment: Total glutathione in striatum and liver of rats after CHX depletion; type: in vivo, Sprague-Dawley rats; conditions: 400 mg/kg i.p. 90 minutes after CHX 75 mg/kg; killed 1 hour after treatment
Protocol: Male Sprague-Dawley rats aged nine weeks and weighing an average of 390 g, were used in the study. Animals were maintained on a twelve hour light-dark cycle with water and food ad libitum. Two animals were housed per cage with room temperature maintained at 22° C.
All pharmacological agents were administered by intraperitoneal injection (i.p.) in a volume of 1 ml/kg, except where otherwise stated. All agents were prepared using saline as a diluent. Brain GSH depletion was performed using cyclohexene-1-one (CHX), administered at 75 mg/kg. Animals were returned to their cage for 90 minutes prior to administration of N-acetyl cysteine (NAC) or N-acetyl cysteine amide (NACA or “AD4”). Animals were killed by decapitation 1 hour after NACA or NAC treatment.
Frontal cortex, striatum and liver samples were immediately excised on ice, weighed and sonicated in SSA buffer (5% sulfosalicylic acid in 100 mM disodium hydrogen orthophosphate, 100 mM sodium dihydrogen orthophosphate and 1 mM EDTA, pH 7.5, 5 mL/g wet tissue). The samples were subsequently centrifuged (22×10^3 g for 10 minutes, 4° C.) and the […] was taken and frozen at −80° C. until analysed.
Total glutathione levels (μmol GSH/gram tissue) were determined in all samples. Samples were assayed according to Baker et al. (1990). Reduced glutathione standards ranging from 0 to 320 ρmol of GSH in 50 μL were prepared in a background buffer identical to the samples (SSA buffer) and then treated in parallel with samples. 50 μl of sample or standard was placed on a 96-well microtiter plate with 100 μL of assay reagent (final concentration in well; 0.15 mM DTNB, 0.2 mM NADPH, 1.0 U glutathione reductase/mL). Plates were assayed for a total of 2 minutes at 414 nm using a Multiskan MCC/340 MK II plate reader and Genesis V3.05 computer software. All chemicals were purchased from Sigma-Aldrich. Statistical evaluation of the data was conducted using analysis of variance (ANOVA).

[3] = NAC 2 g daily plus treatment as usual, week 24
[4] = post-treatment discontinuation (washout, week 28)
[5] = week 24, MMRM, between treatment group LS mean difference

SMILES: CC(=O)N[C@@H](CS)C(=O)O [NAC, N-acetyl cysteine]
- BDRS: End point to Week 24 (Mean ± SD), NAC [1, 3]: 6.7 (6.4)
- CGI-I-BP: End point to Week 24 (Mean ± SD), NAC [1, 3]: 3.1 (1.6)
- CGI-I-D: End point to Week 24 (Mean ± SD), NAC [1, 3]: 3.2 (1.6)
- CGI-I-M: End point to Week 24 (Mean ± SD), NAC [1, 3]: 3.7 (1.1)
- CGI-S-BP: End point to Week 24 (Mean ± SD), NAC [1, 3]: 2.5 (1.2)
- CGI-S-D: End point to Week 24 (Mean ± SD), NAC [1, 3]: 2.3 (1.1)
- CGI-S-M: End point to Week 24 (Mean ± SD), NAC [1, 3]: 1.9 (1.2)
- GAF: End point to Week 24 (Mean ± SD), NAC [1, 3]: 71.3 (13.9)
- LIFE-RIFE: End point to Week 24 (Mean ± SD), NAC [1, 3]: 8.9 (3.3)
- MADRS: End point to Week 24 (Mean ± SD), NAC [1, 3]: 6.6 (7.4)
- Q-LES-Q: End point to Week 24 (Mean ± SD), NAC [1, 3]: 59.2 (12.7)
- SLICE-LIFE: End point to Week 24 (Mean ± SD), NAC [1, 3]: 14.9 (5.2)
- SOFAS: End point to Week 24 (Mean ± SD), NAC [1, 3]: 73.7 (13.4)
- YMRS: End point to Week 24 (Mean ± SD), NAC [1, 3]: 2.1 (3.3)
- Adverse event: headaches ([1]; NAC group, placebo 8%): 18%
- Adverse event: heartburn ([1]; NAC group, placebo 8%): 16%
- Adverse event: increased pain in joints ([1]; NAC group, placebo 8%): 16%
- Adverse event: changed energy ([1]; NAC group, placebo 27%): 21%
- Time to a mood episode (Kaplan Meier) ([1]; NAC versus placebo, log-rank test): did not reveal any significant differences
- Effect sizes (Cohen's d) on all rating scales ([1]; after 24 weeks of NAC treatment): moderate to large effects
- Treatment benefit at the post discontinuation visit ([1]; any of the scales, week 28): not evident
- Adverse events, NAC group compared to placebo group ([1]; checklist of 44 somatic items): No reported event was significantly more common
- Serious adverse events (SAE) in the group ([1]; of the 7 reported, 4 in placebo group): 3
- BDRS: Post-treatment to Week 28 (Mean ± SD), NAC [1, 4]: 12.1 (10.8)
- CGI-I-BP: Post-treatment to Week 28 (Mean ± SD), NAC [1, 4]: 3.5 (1.5)
- CGI-I-D: Post-treatment to Week 28 (Mean ± SD), NAC [1, 4]: 3.7 (1.7)
- CGI-I-M: Post-treatment to Week 28 (Mean ± SD), NAC [1, 4]: 3.7 (1.0)
- CGI-S-BP: Post-treatment to Week 28 (Mean ± SD), NAC [1, 4]: 3.1 (1.5)
- CGI-S-D: Post-treatment to Week 28 (Mean ± SD), NAC [1, 4]: 3.1 (1.7)
- CGI-S-M: Post-treatment to Week 28 (Mean ± SD), NAC [1, 4]: 1.9 (0.9)
- GAF: Post-treatment to Week 28 (Mean ± SD), NAC [1, 4]: 66.6 (14.7)
- LIFE-RIFE: Post-treatment to Week 28 (Mean ± SD), NAC [1, 4]: 10.8 (4.2)
- MADRS: Post-treatment to Week 28 (Mean ± SD), NAC [1, 4]: 12.2 (11.6)
- Q-LES-Q: Post-treatment to Week 28 (Mean ± SD), NAC [1, 4]: 52.8 (11.4)
- SLICE-LIFE: Post-treatment to Week 28 (Mean ± SD), NAC [1, 4]: 17.2 (6.0)
- SOFAS: Post-treatment to Week 28 (Mean ± SD), NAC [1, 4]: 66.9 (16.2)
- YMRS: Post-treatment to Week 28 (Mean ± SD), NAC [1, 4]: 2.8 (3.4)
- Response, defined as a 50% reduction in total MADRS score, participants ([1]; week 20 compared to baseline, placebo 21): 46%
- CGI-I-BP: NAC-Placebo at Endpoint LS Mean [1, 5]: −0.67
- CGI-I-D: NAC-Placebo at Endpoint LS Mean [1, 5]: −0.62
- CGI-I-M: NAC-Placebo at Endpoint LS Mean [1, 5]: −0.05
- CGI-S-D: NAC-Placebo at Endpoint LS Mean [1, 5]: −0.67
- CGI-S-M: NAC-Placebo at Endpoint LS Mean [1, 5]: −0.03
- Response, defined as a 50% reduction in total MADRS score, participants ([1]; week 24 compared to baseline, placebo 18): 51%
- Total glutathione levels in the brain striatum after CHX depletion [2]: rescue
- Total glutathione levels in the liver after CHX depletion [2]: rescue
